What was measured:
[1] = tested on: Isogenic E. coli J58 strain carrying IMP-1; assay: MIC determination, isogenic E. coli strains; type: cell-based
Outline: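 Broth microdilution in cation-adjusted Mueller-Hinton broth with 20 μM apo-transferrin, compound serially diluted two-fold from 64 μg/mL, against E. coli J53 carrying plasmid-borne IMP-1. Inoculum adjusted to 0.5 McFarland; plates incubated 18 h at 37° C. MIC taken as lowest concentration giving a clear well.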

[2] = tested on: Isogenic E. coli J58 strain carrying DHA-1; assay: MIC determination, isogenic E. coli strains; type: cell-based; conditions: Escherichia coli, 18 h, read-out: Mimimum Inhibitory Concentrations, DHA-1
Outline: (§1)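 Broth microdilution in cation-adjusted Mueller-Hinton broth with 20 μM apo-transferrin, 2-fold compound series from 64 μg/mL. E. coli J53, alone or transformed with a pBC-SK(+) plasmid carrying the beta-lactamase gene (e.g. DHA-1), inoculated from 0.5 McFarland suspension; 18 h at 37° C; MIC = lowest concentration with clear well.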

[3] = tested on: E. coli J53 Alone; assay: MIC determination, isogenic E. coli strains; type: cell-based; conditions: for MIC: Escherichia coli, J53ALONE, 18 h, read-out: Mimimum Inhibitory Concentrations, J53 Alone; for Mimimum Inhibitory Concentrations, J53 Alone: Table 4-2, CAMH broth, 20 μM Apo-Transferrin, 37° C., 18 hours
Outline: as §1

[4] = tested on: Isogenic E. coli J58 strain carrying TEM-26; assay: MIC determination, isogenic E. coli strains; type: cell-based; conditions: Escherichia coli, 18 h, read-out: Mimimum Inhibitory Concentrations, TEM-26
Outline: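 Broth microdilution in cation-adjusted Mueller-Hinton broth with 20 μM apo-transferrin, compound […] in twofold steps, inoculum from 0.5 McFarland suspension. E. coli J53 transformed with pBC-SK(+) encoding TEM-26; 18 h at 37° C, MIC as lowest concentration giving a clear well.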

[5] = tested on: Isogenic E. coli J58 strain carrying CTX-M-14; assay: MIC determination, isogenic E. coli strains; type: cell-based; conditions: Escherichia coli, 18 h, read-out: Mimimum Inhibitory Concentrations, CTX-M-14
Outline: (§2)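 Isogenic E. coli J53 carrying plasmid-encoded CTX-M-14 or CTX-M-15 (ampicillin-selected), standardized to 0.08-0.1 OD600, incubated overnight (18 h, 37° C.) in CAMH broth plus 20 μM apo-transferrin over 2-fold compound dilutions starting at 64 μg/mL. Lowest concentration with no visible growth recorded as MIC.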

[6] = tested on: Isogenic E. coli J58 strain carrying CTX-M-15; assay: MIC determination, isogenic E. coli strains; type: cell-based; conditions: Escherichia coli, 18 h, read-out: Mimimum Inhibitory Concentrations, CTX-M-15
Outline: as §2

[7] = tested on: KP(ATCC TEM-10/TEM-12); type: cell-based, Klebsiella pneumoniae; conditions: CAMH broth, 20 μM Apo-Transferrin, 37° C., 18 hours
Description: (§3) Sterile technique was used throughout these experiments. Suspensions of organisms were removed from storage (−80° C.) and partially thawed. Partially thawed organisms (1 μL) were inoculated into 3 mL sterile LB Broth in a sterile culture tube and capped, then cultured at 37° C. with shaking for 4-5 hours until the optical density at 600 nm (OD600) was greater than 0.1 on a single beam spectrophotometer.
(§4) The concentration of organisms was adjusted to 0.08-0.1 OD600 (0.5 McFarland units) by dilution with sterile cation-adjusted Meuller-Hinton (CAMH) broth. The suspensions were used within 30 minutes of preparation.
(§5) A stock solution was made of each test compound by measuring 6.4 mg of the compound on an analytical balance and dissolving it in DMSO (1 mL) to get a transparent solution. The solutions were stored at −20° C. and thawed prior to use.
(§6) Sterile CAMH broth (200 μL) containing 20 μM Apo-Transferrin was pipetted into the first row of 8 columns of a sterile, round-bottomed, transparent, 96-well microplate using an 8-channel pipette equipped with sterile tips. One hundred μL was pipetted into the wells of the remaining 11 rows.
(§7) With an 8-channel pipette equipped with sterile tips, 100 μL of the first row solution was transferred to the second row and mixed. The process was repeated for the second to third rows and continued through row 11. One hundred μL from row 11 was removed and discarded so that all 12 rows contained 100 μL. Row 12 contained no compound and rows 1-11 contained 64, 32, 16, 8, 4, 2, 1, 0.5, 0.25, 0.125, […] of a given compound.
(§8) Inoculant suspensions (0.5 μL) were added to the 12 wells of each column. The plates were then covered and incubated at 37° C. overnight for 18 hours.
(§9) For each organism the MIC was determined by identifying the transparent well with the lowest test compound concentration.

[8] = tested on: EC (Escherichia coli); assay: MIC determination; type: cell-based; conditions: 20 μM Apo-Transferrin, 37° C., 18 hours; for MIC: Escherichia coli, first EC column of Table 3-1, CAMH broth, read-out: Minimum Inhibitory Concentrations, EC; for Minimum Inhibitory Concentrations, EC: Table 3-1, CAMH broth
Outline: (§10)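 Values come from a visual broth microdilution read: the first transparent well at the lowest drug level defines MIC. Inocula were standardized to 0.5 McFarland units, and the medium was CAMH with 20 μM apo-transferrin. Plates incubated overnight, 18 h, at 37 °C.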

[9] = tested on: KP (ATCC KPC-3); assay: MIC determination; type: cell-based, Klebsiella pneumoniae; conditions: CAMH broth, 20 μM Apo-Transferrin, 37° C., 18 hours
Description: as §3, §4, §5, §6, §7, §8, §9

[10] = tested on: KP (GJ 5659 TEM-26); assay: MIC determination; type: cell-based, Klebsiella pneumoniae; conditions: CAMH broth, 20 μM Apo-Transferrin, 37° C., 18 hours
Description: as §3, §4, §5, §6, §7, §8, §9

[11] = tested on: KP(JMI KPC-2); assay: MIC determination; type: cell-based, Klebsiella pneumoniae; conditions: CAMH broth, 20 μM Apo-Transferrin, 37° C., 18 hours
Description: as §3, §4, §5, §6, §7, §8, §9

[12] = tested on: KP(GJ 5934 TEM-26); assay: MIC determination; type: cell-based, Klebsiella pneumoniae; conditions: CAMH broth, 20 μM Apo-Transferrin, 37° C., 18 hours
Description: as §3, §4, §5, §6, §7, §8, §9

[13] = tested on: A. baumannii (JMI OXA-58); assay: MIC determination; type: cell-based, Acinetobacter baumannii; conditions: Acinetobacter baumannii, class D carbapenemase producer, CAMH broth, 20 μM Apo-Transferrin, 37° C., 18 hours, read-out: Minimum Inhibitory Concentrations, A. baumannii (JMI OXA-58)
Description: as §3, §4, §5, §6, §7, §8, §9

[14] = tested on: A. baumannii; assay: MIC determination; type: cell-based, Acinetobacter baumannii; conditions: for MIC: Acinetobacter baumannii, A. baumannii, CAMH broth, 20 μM Apo-Transferrin, 37° C., 18 hours, read-out: Minimum Inhibitory Concentrations, A. baumannii
Description: as §3, §4, §5, §6, §7, §8, §9

[15] = tested on: KOXY (Klebsiella oxytoca); assay: MIC determination; type: cell-based; conditions: Klebsiella oxytoca, CAMH broth, 20 μM Apo-Transferrin, 37° C., 18 hours, read-out: Minimum Inhibitory Concentrations, KOXY
Outline: as §10

[16] = tested on: KP (Klebsiella pneumoniae); assay: MIC determination; type: cell-based; conditions: 20 μM Apo-Transferrin, 37° C., 18 hours
Outline: as §10

[17] = tested on: KP (URMC-2); assay: MIC determination; type: cell-based, Klebsiella pneumoniae; conditions: CAMH broth, 20 μM Apo-Transferrin, 37° C., 18 hours
Description: as §3, §4, §5, §6, §7, §8, §9

[18] = tested on: KP (URMC-1); assay: MIC determination; type: cell-based, Klebsiella pneumoniae; conditions: CAMH broth, 20 μM Apo-Transferrin, 37° C., 18 hours
Description: as §3, §4, §5, §6, §7, §8, §9

[19] = tested on: KP (RR -1); assay: MIC determination; type: cell-based, Klebsiella pneumoniae; conditions: CAMH broth, 20 μM Apo-Transferrin, 37° C., 18 hours
Description: as §3, §4, §5, §6, §7, §8, §9

[20] = tested on: KP (URMC-3); assay: MIC determination; type: cell-based, Klebsiella pneumoniae; conditions: CAMH broth, 20 μM Apo-Transferrin, 37° C., 18 hours
Description: as §3, §4, §5, §6, §7, §8, §9

[21] = tested on: EA (URMC -3); assay: MIC determination; type: cell-based; conditions: CAMH broth, 20 μM Apo-Transferrin, 37° C., 18 hours
Description: as §3, §4, §5, §6
To each well of the first row was pipetted 2.0 μL of the 6.4 mg/mL stock test compound stock solution to give 1:100 dilutions and a final concentration of 64 μg/mL and mixed.
as §7, §8, §9

| SMILES | MIC [3] [µg/mL] | Mimimum Inhibitory Concentrations, J53 Alone [3] [microgram/mL] | MIC [4] [µg/mL] | MIC [5] [µg/mL] | MIC [6] [µg/mL] | Minimum Inhibitory Concentrations, KP(ATCC TEM-10/TEM-12) [7] [microgram/mL] | MIC [8] [µg/mL] | Minimum Inhibitory Concentrations, EC [8] [microgram/mL] | Minimum Inhibitory Concentrations, KP (ATCC KPC-3) [9] [microgram/mL] | Minimum Inhibitory Concentrations, KP (GJ 5659 TEM-26) [10] [microgram/mL] | Minimum Inhibitory Concentrations, KP(JMI KPC-2) [11] [microgram/mL] | Minimum Inhibitory Concentrations, KP(GJ 5934 TEM-26) [12] [microgram/mL] | MIC [13] [µg/mL] | MIC [14] [µg/mL] | Minimum Inhibitory Concentrations, KP (URMC-2) [17] [microgram/mL] | Minimum Inhibitory Concentrations, KP (URMC-1) [18] [microgram/mL] | Mimimum Inhibitory Concentrations, KP (RR -1) [19] [microgram/mL] | Minimum Inhibitory Concentrations, KP (URMC-3) [20] [microgram/mL] | Mimimum Inhibitory Concentrations, EA (URMC -3) [21] [microgram/mL] | other results |
| --- | --- | --- | --- | --- | --- | --- | --- | --- | --- | --- | --- | --- | --- | --- | --- | --- | --- | --- | --- | --- |
| C#CC[N+]1(Cc2ccc(C=CC3=C(C(=O)O)N4C(=O)[C@@H](NC(=O)/C(=N\OC(C)(C)C(=O)O)c5csc(N)n5)[C@H]4SC3)cc2)CCc2cc(O)c(O)cc2C1 (mixture of isomers) [Compound 446, 2-(4-((E/Z)-2-((6R,7R)-7-((Z)-2-(2-aminothiazol-4-yl)-2-(((2-carboxypropan-2-yl)oxy)imino)acetamido)-2-carboxy-8-oxo-5-thia-1-azabicyclo[4.2.0]oct-2-en-3-yl)vinyl)benzyl)-6,7-dihydroxy-2-(prop-2-yn-1-yl)-1,2,3,4-tetrahydroisoquinolin-2-ium] | 0.13 | 0.13 | 0.25 | 0.25 | 0.25 | 16 | 0.5 | 0.5 | 64 | 2 | 32 | 0.5 | > 64 | 2 | – | – | – | – | – | MIC ([1]; Escherichia coli, 18 h, read-out: Mimimum Inhibitory Concentrations, IMP-1): 1 µg/mL; MIC [2]: 0.25 µg/mL |
| CC(C)(O/N=C(\C(=O)N[C@@H]1C(=O)N2C(C(=O)O)=C(C=Cc3ccc(C[n+]4ccc(-c5ccc(O)c(O)c5)cc4)cc3)CS[C@H]12)c1csc(N)n1)C(=O)O (mixture of isomers) [Compound 412, 1-(4-((E/Z)-2-((6R,7R)-7-((Z)-2-(2-aminothiazol-4-yl)-2-(((2-carboxypropan-2-yl)oxy)imino)acetamido)-2-carboxy-8-oxo-5-thia-1-azabicyclo[4.2.0]oct-2-en-3-yl)vinyl)benzyl)-4-(3,4-dihydroxyphenyl)pyridin-1-ium] | ≤ 0.06 | ≤0.06 | – | 0.5 | 0.13 | 32 | – | – | >64 | 2 | 64 | 0.5 | > 64 | 8 | ≤0.06 | ≤0.06 | 0.5 | 0.25 | ≤0.06 | MIC [15]: 0.5 µg/mL; Minimum Inhibitory Concentrations, KP ([16]; first KP column of Table 3-1, CAMH broth): 2 microgram/mL; Minimum Inhibitory Concentrations, KP ([16]; second KP column of Table 3-1, CAMH broth): 2 microgram/mL |
| CC(C)(O/N=C(\C(=O)N[C@@H]1C(=O)N2C(C(=O)O)=C(C=Cc3ccc(C[N+]4(C)CCc5ccc(O)c(O)c5C4)cc3)CS[C@H]12)c1csc(N)n1)C(=O)O (mixture of isomers) [Compound 442, 2-(4-((E/Z)-2-((6R,7R)-7-((Z)-2-(2-aminothiazol-4-yl)-2-(((2-carboxypropan-2-yl)oxy)imino)acetamido)-2-carboxy-8-oxo-5-thia-1-azabicyclo[4.2.0]oct-2-en-3 yl)vinyl)benzyl)-7,8-dihydroxy-2-methyl-1,2,3,4-tetrahydroisoquinolin-2-ium] | 0.25 | 0.25 | 0.5 | – | – | 4 | 0.25 | 0.25 | >64 | 0.5 | 64 | 0.5 | > 64 | 1 | 0.25 | 0.13 | 0.25 | ≤0.06 | 1 | MICs for an E. coli strain carrying the gene for carbapenemase IMP-1, in words ([1]; review of Tables 4-1 and 4-2): low microgram/mL MICs; MICs for an Acinetobacter baumannii strain, in words ([14]; review of Table 2): low microgram/mL MICs |
